From patent US20120010177A1, “MicroRNA Modulators and Method for Identifying And Using The Same” (The Wistar Institute / North Carolina State University, priority 2008, published 2012) come the findings set out here.

In general, AC50 refers to the midpoint of the concentration-response curve, whichever way the signal moves.

In one test the test system is miR-21. The experiment in a line: High throughput primary miR-21 FLuc reporter assay (concentration-response). The note with it: HeLa Luc-miR-21 reporter, 48-hour incubation. It is filed as cell-based, human. The method, boiled down:
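HeLa cells carrying a Luc-miR-21 firefly luciferase reporter were treated with compound for 48 h. miR-21 inhibition was read as increased luciferase signal. Concentration-response data were fitted with a four-parameter logistic model.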
For orientation: Reporter assays use an easily measured gene product as a stand-in for the process of interest.
`COc1ccc2cc(OCC(=O)NNC(=O)Nc3ccc(C(C)=O)cc3)ccc2c1` [Compound 183, COC1═C/C═C2/C═C(OCC(═O)NNC(═O)NC3═C/C═C(\C═C\3)C(C)═O)\C═C/C\2═C\1]: the Efficacy is −65.21.

The same test, now with this note: HeLa Luc-miR-21 reporter, 48-hour incubation, four parameter logistic fit.
For the compound `COc1ccc2cc(OCC(=O)NNC(=O)Nc3ccc(C(C)=O)cc3)ccc2c1` [Compound 183, COC1═C/C═C2/C═C(OCC(═O)NNC(═O)NC3═C/C═C(\C═C\3)C(C)═O)\C═C/C\2═C\1], the “Curve Class” value is recorded as −2.2.

The same test, now with this note: HeLa Luc-miR-21 reporter, 48-hour incubation; read-out: AC50.
In the case of `COc1ccc2cc(OCC(=O)NNC(=O)Nc3ccc(C(C)=O)cc3)ccc2c1` [Compound 183, COC1═C/C═C2/C═C(OCC(═O)NNC(═O)NC3═C/C═C(\C═C\3)C(C)═O)\C═C/C\2═C\1], the AC50 was 16.5 µM.

Staying with this test, now noted: Homo sapiens, HeLa, 48 h, HeLa Luc-miR-21 reporter, 48-hour incubation; read-out: AC50.
On to `Cc1cc(CC(C)C)n(-c2nc3ccccc3c(=O)n2OCC(N)=O)n1` [Compound 180], for which the AC50 stood at 14.7 µM.
Same read-out and setting: in the case of `Cc1ccc2c(C)c(C(=O)N(C)C(C)c3ccncn3)oc2c1C` (stereo not shown) [Compound 77] it was 13.1 µM.
On the same count and under the same terms, in the case of `O=C(CSc1ccccc1)NCCc1ccccc1` [Compound 152] it was 14.7 µM; in that of `Nc1c(C(=O)Nc2cc(F)ccc2F)sc2nc(-c3cccc(O)c3)ccc12` [Compound 84], 11.7 µM.
`Cc1ccc(NC(=O)CSc2nnc(-c3cccs3)o2)cc1S(=O)(=O)N(C)C` [Compound 141]: the AC50 amounted to 8.26 µM.
In the case of `Cc1occc1C(=O)N/N=C(\S)Nc1ccccc1C(F)(F)F` [Compound 211], the AC50 was determined as 8.26 µM.
For the compound `Cc1c(-c2nnc(SCC(=O)Nc3ccccc3F)o2)nnn1-c1ccc(F)cc1` [Compound 127], the concentration at half-maximal activity (AC50) amounted to 2.93 µM.
Still for that read-out and setting: in the case of `CC(C)COc1ccc(C(=O)Nc2cc(-c3ccccc3)no2)cc1` [Compound 88] it was 4.65 µM; in that of `CC(=O)N1N=C(c2ccc(C)cc2)OC1c1cccnc1` (stereo not shown) [Compound 228], 16.5 µM; in that of `C/C(CC(=O)NC(C)(C)C)=N\NC(=O)c1ccccc1N` [Compound 200], 5.21 µM.
For the compound `CC(=O)c1cnc2nc(SCc3ccccc3)nn2c1C` [Compound 43], the AC50 stood at 5.21 µM.
Same read-out and setting: in the case of `COc1ccc(-n2nnc(-c3nc(-c4cccs4)no3)c2N)cc1` [Compound 17] it was 0.58 µM.
As to `COc1ccc(N/C(S)=N/NC(=O)c2cccs2)cc1` [Compound 208], the concentration at half-maximal activity (AC50) is 7.36 µM.
On the same count and under the same terms, in the case of `CC(C)C(=O)Nc1nc2c(s1)CC(C(C)(C)C)CC2` (stereo not shown) [Compound 94] it was 2.07 µM; in that of `Cc1cc(C)n2nc(SCCOc3ccccc3F)nc2n1` [Compound 47], 11.7 µM.
The same measure, in the same setting: in the case of `N#CC1Cc2cc3c(cc2N=C1SCC(=O)N1CCOCC1)OCO3` (stereo not shown) [Compound 121] it was 0.66 µM; in that of `CC(=O)Nc1ccccc1NC(=O)C/C(C)=N/NC(=O)c1ccccn1` [Compound 189], 1.85 µM.
The same measure, in the same setting: in the case of `CCCC(=O)Nc1ccc(NC(=O)C23CC4CC(CC(C4)C2)C3)cn1` [Compound 99] it was 18.5 µM.
With `Cc1ccc(-c2nc3ncccn3c2Nc2ccc3c(c2)OCCO3)o1` [Compound 242], the AC50 came to 16.5 µM.
Still for that read-out and setting: in the case of `CCCCC12CN3CCN(CC(C3)/C1=N/NC(=O)c1ccccc1N)C2` [Compound 214] it was 9.27 µM.

Staying with this test, now noted: Homo sapiens, Table 12 singletons; read-out: AC50.
As for `COc1ccc(-c2csc(NC(=O)COC(=O)c3ccc(Br)o3)n2)cc1` [Compound 259], the AC50 is 2.93 µM.
For `Cc1ccc2[nH]c3c(S)ncnc3c2c1` [Compound 264], the AC50 amounted to 3.69 µM.
Same read-out and setting: in the case of `CC(C)(C)NS(=O)(=O)c1cccc(S(=O)(=O)c2cccc(S(=O)(=O)NC(C)(C)C)c2)c1` [Compound 253] it was 1.65 µM; in that of `O=C(CN1c2ccc(Br)cc2-c2ccccc2S1(=O)=O)N1CCCCC1` [Compound 280], 7.36 µM.
Still for that read-out and setting: in the case of `Cc1cc(CC(C)C)n(-c2nc3ccccc3c(=O)n2OCC(N)=O)n1` [Compound 313] it was 14.7 µM; in that of `COc1ccc(C2Nc3ccccc3C(=O)N2c2ccc(C)cc2)cc1Cn1nc(C)c([N+](=O)[O-])c1C` (stereo not shown) [Compound 347], 3.09 µM.
On to `CCc1ccc(N2C(=O)Cc3c2nc(N)c(C#N)c3N)cc1` [Compound 318], for which the AC50 worked out at 16.5 µM.
Take `CCOC(=O)C1CCCN(Cc2cccc(Cl)c2)C1` (stereo not shown) [Compound 335]: the AC50 turned out to be 18.5 µM.
As for `CN1CCN(/N=C/c2nc(-c3ccc(Cl)cc3)n3ccccc23)CC1` [Compound 325], the AC50 was 16.5 µM.
`O=S(=O)(c1cccc2nsnc12)N1CCc2ccccc21` [Compound 269]: the AC50 came out at 4.65 µM.
`O=S(=O)(c1ccc(F)cc1)n1ccc(-c2cnc(-c3ccccc3)s2)n1` [Compound 260]: the AC50 came to 2.93 µM.
